In patent US20200405715A1, “COMPOSITIONS AND METHODS FOR TREATING CANCER AND INFLAMMATORY DISEASES” (University of Pittsburgh - Of the Commonwealth System of …, priority 2016, published 2020):

Test system: Nedd8-cullin
Experiment: Cullin neddylation, protein immunoblotting in HepG2 cells
Type: cell-based
Settings: 48 h at 10 uM (FIG. 2)
Excerpt: Cells were then collected and assayed for protein immunoblotting. […]
DCN1 protein is believed to harbor a UBC12 binding pocket. Scott et al, Cell 757:1671-84 (2014). […] Scott et al. (2014). The N-terminal acetylation acts as an avidity enhancer within an interconnected multiprotein complex. Science, 554:674-8 (2011). Specifically, n-terminal of UBC12 is acetylated (FIG. 1A, yellow) and completely buried inside the hydrophobic pocket within DCN1 (4gao.PDB, FIG. 1B). Small molecule inhibition of the DCN1 hydrophobic pocket would presumably disrupt UBC12 binding, and thus disrupt Neddylation of Cullin protein. Potential ligands were assessed that might fit the DCN1 domain cavities (FIG. 1B). 3-(pentylamino)-5-phenylcyclohex-2-en-1-one was selected for future testing (FIG. 1C). […] MLN4924 was used as a positive control.

SMILES | reducing cullin1 neddylation
CCCCCNC1=CC(=O)CC(c2ccccc2)C1 (stereo not drawn) [3-(pentylamino)-5-phenylcyclohex-2-en-1-one] | good activity

Test system: HepG2 tumor implants
Experiment: HepG2 tumor implants in nude mice, tumor growth
Type: in vivo, athymic nude mice
Settings: compounds in drinking water (15 mg/kg/d), start at tumor size 0.1 cm^3 (FIG. 8)
Experimental: Mice were implanted with HepG2 cells (10^6 cells) through subcutaneous injection. 2 weeks later, once tumor size reaches ˜0.1 cm^3, mice were randomized and the treatment began by adding compounds to the drinking water ([…]). Tested compounds were: Vehicle, 3-(decylamino)-5-phenylcyclohex-2-en-1-one (BC1558), 3-(dibenzylamino)-5-phenylcyclohex-2-en-1-one (BC1634) or 3-((4-phenoxybenzyl)amino)-5-phenylcyclohex-2-en-1-one (BC1653). Tumor volume measurements over time were graphed (n=4-5 mice/group, *P<0.05 versus Vehicle).
As a complementary in vivo model, tumorogenicity was further assessed after implanting HepG2 cells along with 3-(decylamino)-5-phenylcyclohex-2-en-1-one, 3-(dibenzylamino)-5-phenylcyclohex-2-en-1-one, 3-((4-phenoxybenzyl)amino)-5-phenylcyclohex-2-en-1-one treatment in athymic nude mice. Mice were implanted with HepG2 cells through subcutaneous injection. Two weeks later, once tumor size reached 0.1 cm^3, the mice were randomized and the treatment began by adding compounds to the drinking water (15 mg/kg/d).

SMILES | tumor size compared to the vehicle
O=C1C=C(N(Cc2ccccc2)Cc2ccccc2)CC(c2ccccc2)C1 (stereo not drawn) [BC1634, 3-(dibenzylamino)-5-phenylcyclohex-2-en-1-one] | Significantly reduced tumor size
O=C1C=C(NCc2ccc(Oc3ccccc3)cc2)CC(c2ccccc2)C1 (stereo not drawn) [BC1653, 3-((4-phenoxybenzyl)amino)-5-phenylcyclohex-2-en-1-one] | Significantly reduced tumor size

Test system: DSS induced colonic inflammation
Experiment: DSS induced colitis model
Type: in vivo, C57BL6 mice
Settings: DSS in water, compounds in drinking water at 10 mg/kg/d (FIG. 12A-B)
Experimental: FIGS. 12A-12D show DCN1 inhibitors reduce DSS induced colonic inflammation, specifically the following experimental results C57BL6 mice were fed with water ad lib containing 3% dextran sulfate sodium (DSS) for six days. DCN1 inhibitors were administered into drinking water at 10 mg/kg/d, starting at day 1. […] The data represent n=4 mice/group, *P<0.05 versus CON.
Also tested were 3-(decylamino)-5-phenylcyclohex-2-en-1-one (BC1558), 3-(dibenzylamino)-5-phenylcyclohex-2-en-1-one (BC1634) and 3-((4-phenoxybenzyl)amino)-5-phenylcyclohex-2-en-1-one (BC1653) in a mouse colitis model to confirm its anti-inflammatory activity. Briefly, C57BL6 mice were fed with water containing 3.5% […] and colonic length was measured. DSS produced a significant decrease in colon length in mice, consistent with colonic inflammation (FIG. 12A-B). […] Colonic tissue cytokine levels were further analyzed.

SMILES | colon length compared vehicle
O=C1C=C(NCc2ccc(Oc3ccccc3)cc2)CC(c2ccccc2)C1 (stereo not drawn) [BC1653, 3-((4-phenoxybenzyl)amino)-5-phenylcyclohex-2-en-1-one] | significant increase

Same assay, conditions: DSS in water, compounds in drinking water at 10 mg/kg/d (FIG. 12C-D)

SMILES | IL1β and IL6 levels in colonic tissue compared to vehicle
O=C1C=C(NCc2ccc(Oc3ccccc3)cc2)CC(c2ccccc2)C1 (stereo not drawn) [BC1653, 3-((4-phenoxybenzyl)amino)-5-phenylcyclohex-2-en-1-one] | large reduction

Test system: HepG2 cells
Experiment: HepG2 cell proliferation (CellTiter-Glo Luminescent Cell Viability Assay)
Type: cell-based
Settings: Homo sapiens, 96 h, ATP production, n=3, read-out: IC50Proliferation
Experimental: Cell proliferation were then measured by CellTiter-Glo® Luminescent Cell Viability Assay (n=3).
4KHepG2 cells were seeded in 96 well plates for overnight. Compounds listed in Table 3 were then added to each well at various concentrations. 96 h later, cell proliferation was measured by ATP production using a CellTiter-Glo® Luminescent Cell Viability Assay (Promega).
3-(pentylamino)-5-phenylcyclohex-2-en-1-one was modified by adding a different sidechain. These novel compounds were tested further in an in vitro proliferation assay using ATPLite Cell Proliferation kit. […] Others lost activity in reducing Cullin Neddylation and inhibiting cell proliferation (FIG. 3C-D).

IC50 [µM] | SMILES
> 10 | CCCCCCCCCCNC1=CC(=O)CC(c2ccc3c(c2)OCO3)C1 (stereo not drawn) [BC1644]
< 1 | CCCCCCCCCCNC1=CC(=O)CC(c2ccco2)C1 (stereo not drawn) [BC1646]
1 to 10 | CCCCCCCCCCNC1=CC(=O)CC(c2ccc(F)cc2)C1 (stereo not drawn) [BC1648]
1 to 10 | O=C1C=C(NCc2cccc(-c3ncccn3)c2)CC(c2ccccc2)C1 (stereo not drawn) [BC1650]
< 1 | O=C1C=C(NCc2cccc(Oc3ccccc3)c2)CC(c2ccccc2)C1 (stereo not drawn) [BC1651]
< 1 | O=C1C=C(NCc2ccc(Oc3ccccc3)cc2)CC(c2ccccc2)C1 (stereo not drawn) [BC1653, 3-((4-phenoxybenzyl)amino)-5-phenylcyclohex-2-en-1-one]
> 10 | Cc1cccc(N2CCC(NC3=CC(=O)CC(c4ccccc4)C3)CC2)c1 (stereo not drawn) [BC1654]
> 10 | O=C1C=C(Nc2cnc(-c3ccccc3)nc2)CC(c2ccccc2)C1 (stereo not drawn) [BC1655]
> 10 | O=C1C=C(NCc2cnc(Nc3ccccc3)nc2)CC(c2ccccc2)C1 (stereo not drawn) [BC1656]
1 to 10 | O=C1C=C(NCc2cnc(-c3ccccc3)nc2)CC(c2ccccc2)C1 (stereo not drawn) [BC1657]
> 10 | O=C1C=C(NCc2nc3ccccc3[nH]2)CC(c2ccccc2)C1 (stereo not drawn) [BC1658]
< 1 | O=C1C=C(NCc2ccc3[nH]c4ccccc4c3c2)CC(c2ccccc2)C1 (stereo not drawn) [BC1659]
1 to 10 | COc1ccc(Oc2ccc(CNC3=CC(=O)CC(c4ccccc4)C3)cc2)cc1 (stereo not drawn) [BC1660]
> 10 | CC(NC1=CC(=O)CC(c2ccccc2)C1)c1ccc(Oc2ccccc2)cc1 (stereo not drawn) [BC1661]
< 1 | O=C1C=C(NCc2ccc(Oc3ccc(F)cc3)cc2)CC(c2ccccc2)C1 (stereo not drawn) [BC1662]
< 1 | O=C1C=C(NCc2ccc(OC3CCCCC3)cc2)CC(c2ccccc2)C1 (stereo not drawn) [BC1663]
> 10 | CN1CCC(c2ccc(CNC3=CC(=O)CC(c4ccccc4)C3)cc2)CC1 (stereo not drawn) [BC1664]
> 10 | O=C1C=C(NCc2ccc(CN3CCCCC3)cc2)CC(c2ccccc2)C1 (stereo not drawn) [BC1665]
< 1 | O=C1C=C(NCc2ccc(OC3CCCC3)cc2)CC(c2ccccc2)C1 (stereo not drawn) [BC1666]
> 10 | CC1CC(C)CN(Cc2ccc(CNC3=CC(=O)CC(c4ccccc4)C3)cc2)C1 (stereo not drawn) [BC1667]
1 to 10 | O=C1C=C(NCc2ccc(CN3CCOCC3)cc2)CC(c2ccccc2)C1 (stereo not drawn) [BC1668]
< 1 | COc1cc(CNC2=CC(=O)CC(c3ccccc3)C2)ccc1OC1CCCC1 (stereo not drawn) [BC1669]
1 to 10 | O=C1C=C(NCc2ccc3oc4ccccc4c3c2)CC(c2ccccc2)C1 (stereo not drawn) [BC1670]

Second part, the molecule before the results:

SMILES | IC50 [µM]
CCCCCNC1=CC(=O)CC(c2ccccc2)C1 (stereo not drawn) [BC1526] | 1 to 10
CC(C)CCNC1=CC(=O)CC(c2ccccc2)C1 (stereo not drawn) [BC1532] | 1 to 10
O=C1C=C(NC2CCCCC2)CC(c2ccccc2)C1 (stereo not drawn) [BC1534] | > 10
O=C1C=C(NCCc2ccccc2)CC(c2ccccc2)C1 (stereo not drawn) [BC1535] | 1 to 10
CCC(C)NC1=CC(=O)CC(c2ccccc2)C1 (stereo not drawn) [BC1546] | > 10
O=C1C=C(NCc2ccccc2)CC(c2ccccc2)C1 (stereo not drawn) [BC1548] | 1 to 10
O=C1C=C(NC23CC4C[C@H](C2)C[C@@H](C4)C3)CC(c2ccccc2)C1 (stereo partly drawn) [BC1549] | > 10
O=C1C=C(NC2C[C@@H]3CCC2C3)CC(c2ccccc2)C1 (stereo partly drawn) [BC1550] | 1 to 10
CCCCCCCNC1=CC(=O)CC(c2ccccc2)C1 (stereo not drawn) [BC1552] | < 1
CCCCCCCCNC1=CC(=O)CC(c2ccccc2)C1 (stereo not drawn) [BC1554] | < 1
CCCCCCCCCNC1=CC(=O)CC(c2ccccc2)C1 (stereo not drawn) [BC1556] | < 1
CCCCCCCCCCCNC1=CC(=O)CC(c2ccccc2)C1 (stereo not drawn) [BC1560] | < 1
CCCCCCCCCCCCNC1=CC(=O)CC(c2ccccc2)C1 (stereo not drawn) [BC1562] | < 1
CCCCCCCCCCCCCCCCNC1=CC(=O)CC(c2ccccc2)C1 (stereo not drawn) [BC1564] | > 10
O=C1C=C(NC(c2ccccc2)c2ccccc2)CC(c2ccccc2)C1 (stereo not drawn) [BC1621] | > 10
O=C1C=C(NC2CCCCCCCCCCC2)CC(c2ccccc2)C1 (stereo not drawn) [BC1623] | > 10
O=C1C=C(NC2CCC2)CC(c2ccccc2)C1 (stereo not drawn) [BC1625] | > 10
CC1(C)C2C[C@@H]1CCC2CNC1=CC(=O)CC(c2ccccc2)C1 (stereo partly drawn) [BC1627] | 1 to 10
O=C1C=C(NCc2ccc(-c3ccccc3)cc2)CC(c2ccccc2)C1 (stereo not drawn) [BC1629] | < 1
O=C1C=C(NCc2cccc(-c3ccccc3)c2)CC(c2ccccc2)C1 (stereo not drawn) [BC1631] | < 1
O=C1C=C(NCC2CCCCC2)CC(c2ccccc2)C1 (stereo not drawn) [BC1633] | > 10
Cc1ccccc1-c1cccc(CNC2=CC(=O)CC(c3ccccc3)C2)c1 (stereo not drawn) [BC1640] | 1 to 10
Cc1ccccc1-c1cccc(CNC2=CC(=O)CC(c3ccc4c(c3)OCO4)C2)c1 (stereo not drawn) [BC1641] | > 10
